Measured values reported in patent EP4467141A1, “PYRAZOLO-QUINOLINES AS SELECTIVE INHIBITORS OF GENOTOXIC STRESS-INDUCED IKK/NF- KB PATHWAYS FOR CANCER THERAPY” (Max-Delbrück-Centrum für Molekulare Medizin in der …, priority 2023, dated 2024).

How the values were obtained:
Test in all cases: Kinase panel study
Type in all cases: biochemical
Details in all cases: read-out: Percentage of inhibition; for inhibition at 1 µM: 1000nM; for inhibition at 10 µM: 10000nM
TXK = molecular target: T1, TXK (Homo sapiens, UniProt P42681)
T1 construct: purchased Thermo Fisher Scientific
T1 sequence (P42681 1-527): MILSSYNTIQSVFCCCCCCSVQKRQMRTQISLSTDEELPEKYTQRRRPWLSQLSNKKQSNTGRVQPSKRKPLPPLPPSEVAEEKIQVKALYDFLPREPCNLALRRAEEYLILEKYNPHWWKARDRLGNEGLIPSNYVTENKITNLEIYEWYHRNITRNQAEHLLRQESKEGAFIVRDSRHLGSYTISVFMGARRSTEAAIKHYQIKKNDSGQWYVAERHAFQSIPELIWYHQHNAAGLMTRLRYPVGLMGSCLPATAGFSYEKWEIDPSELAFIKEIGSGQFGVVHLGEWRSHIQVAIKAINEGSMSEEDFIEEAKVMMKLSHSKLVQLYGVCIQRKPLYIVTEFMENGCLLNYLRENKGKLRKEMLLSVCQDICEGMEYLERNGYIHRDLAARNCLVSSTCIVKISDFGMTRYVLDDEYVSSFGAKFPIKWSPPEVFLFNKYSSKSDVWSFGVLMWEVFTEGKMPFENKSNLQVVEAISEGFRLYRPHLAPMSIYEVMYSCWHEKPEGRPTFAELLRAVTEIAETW
Outline: (§1)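 Kinase inhibition was determined by a contract provider in cell-free ZLyte or Adapta assays. Results are expressed as % inhibition at 10 or 1 µM.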

CDK4/cyclin D1 = molecular target: T2, CDK4/cyclin D1 (Homo sapiens, UniProt P11802)
T2 construct: purchased Thermo Fisher Scientific
Outline: as §1

AMPK (A1/B2/G2) = molecular target: T3, AMPK (A1/B2/G2) (Homo sapiens, UniProt Q13131)
T3 construct: purchased Thermo Fisher Scientific
Outline: as §1

AMPK A1/B1/G1 = molecular target: T4, AMPK A1/B1/G1 (Homo sapiens, UniProt Q13131)
T4 construct: purchased Thermo Fisher Scientific
Outline: as §1

GRK6 = molecular target: T5, GRK6 (Homo sapiens, UniProt P43250)
T5 construct: purchased Thermo Fisher Scientific
Outline: as §1

NEK9 = molecular target: T6, NEK9 (Homo sapiens, UniProt Q8TD19)
T6 construct: purchased Thermo Fisher Scientific
T6 sequence (Q8TD19 1-979): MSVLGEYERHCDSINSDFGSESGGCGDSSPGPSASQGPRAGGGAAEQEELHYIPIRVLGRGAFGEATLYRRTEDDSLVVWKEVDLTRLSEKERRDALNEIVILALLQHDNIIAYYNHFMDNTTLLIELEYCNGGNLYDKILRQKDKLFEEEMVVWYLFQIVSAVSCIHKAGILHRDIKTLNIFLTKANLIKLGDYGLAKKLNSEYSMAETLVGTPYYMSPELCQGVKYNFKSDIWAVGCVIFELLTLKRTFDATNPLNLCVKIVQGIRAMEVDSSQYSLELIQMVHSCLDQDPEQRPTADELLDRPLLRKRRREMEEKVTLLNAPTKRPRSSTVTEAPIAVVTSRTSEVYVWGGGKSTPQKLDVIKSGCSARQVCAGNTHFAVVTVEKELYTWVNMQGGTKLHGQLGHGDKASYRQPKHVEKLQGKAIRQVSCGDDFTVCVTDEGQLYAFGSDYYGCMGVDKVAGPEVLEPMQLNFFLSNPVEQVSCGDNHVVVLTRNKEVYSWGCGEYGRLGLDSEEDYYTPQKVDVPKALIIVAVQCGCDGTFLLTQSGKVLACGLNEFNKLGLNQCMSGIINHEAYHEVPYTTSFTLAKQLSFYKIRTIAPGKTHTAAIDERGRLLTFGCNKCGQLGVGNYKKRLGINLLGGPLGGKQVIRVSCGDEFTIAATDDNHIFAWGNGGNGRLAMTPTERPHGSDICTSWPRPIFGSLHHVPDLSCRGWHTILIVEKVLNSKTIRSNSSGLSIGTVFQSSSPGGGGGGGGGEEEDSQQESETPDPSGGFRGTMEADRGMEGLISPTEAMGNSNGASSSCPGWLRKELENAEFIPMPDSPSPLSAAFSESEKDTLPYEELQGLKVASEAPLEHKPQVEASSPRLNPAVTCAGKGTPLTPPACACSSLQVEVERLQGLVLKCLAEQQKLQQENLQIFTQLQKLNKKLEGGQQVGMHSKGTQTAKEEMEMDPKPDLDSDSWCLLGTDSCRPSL
Outline: as §1

RPS6KA1 (RSK1) = molecular target: T7, RPS6KA1 (RSK1) (Homo sapiens, UniProt Q15418)
T7 construct: purchased Thermo Fisher Scientific
Outline: as §1

ABL1 Y253F = molecular target: T8, ABL1 Y253F (Homo sapiens, UniProt P00519, Y253F)
T8 construct: purchased Thermo Fisher Scientific
Outline: as §1

CDK6/cyclin D1 = molecular target: T9, CDK6/cyclin D1 (Homo sapiens, UniProt Q00534)
T9 construct: purchased Thermo Fisher Scientific
Outline: as §1

T4 sequence (Q13131 whole entry): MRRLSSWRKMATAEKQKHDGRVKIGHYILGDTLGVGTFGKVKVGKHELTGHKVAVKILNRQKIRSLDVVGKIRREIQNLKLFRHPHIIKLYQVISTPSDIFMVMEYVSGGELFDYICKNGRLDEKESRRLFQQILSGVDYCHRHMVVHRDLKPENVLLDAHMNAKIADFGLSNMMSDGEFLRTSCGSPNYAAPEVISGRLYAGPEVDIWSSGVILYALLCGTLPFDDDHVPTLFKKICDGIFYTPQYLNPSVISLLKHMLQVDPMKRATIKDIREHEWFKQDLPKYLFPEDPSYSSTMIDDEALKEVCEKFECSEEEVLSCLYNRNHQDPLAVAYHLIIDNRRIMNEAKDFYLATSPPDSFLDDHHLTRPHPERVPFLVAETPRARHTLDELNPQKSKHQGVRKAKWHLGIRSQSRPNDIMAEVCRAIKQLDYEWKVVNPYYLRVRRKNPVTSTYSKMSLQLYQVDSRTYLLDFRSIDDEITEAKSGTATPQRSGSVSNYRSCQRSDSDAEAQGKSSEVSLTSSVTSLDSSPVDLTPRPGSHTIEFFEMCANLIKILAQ
T4 sequence (Q9Y478 whole entry partner): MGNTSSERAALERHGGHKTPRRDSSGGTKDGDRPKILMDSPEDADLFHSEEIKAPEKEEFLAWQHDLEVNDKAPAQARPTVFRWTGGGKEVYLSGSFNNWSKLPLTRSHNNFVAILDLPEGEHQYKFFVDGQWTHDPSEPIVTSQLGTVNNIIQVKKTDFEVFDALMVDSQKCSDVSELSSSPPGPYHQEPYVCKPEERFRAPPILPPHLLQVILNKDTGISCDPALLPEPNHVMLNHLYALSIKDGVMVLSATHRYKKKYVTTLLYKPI
T4 sequence (P54619 whole entry partner): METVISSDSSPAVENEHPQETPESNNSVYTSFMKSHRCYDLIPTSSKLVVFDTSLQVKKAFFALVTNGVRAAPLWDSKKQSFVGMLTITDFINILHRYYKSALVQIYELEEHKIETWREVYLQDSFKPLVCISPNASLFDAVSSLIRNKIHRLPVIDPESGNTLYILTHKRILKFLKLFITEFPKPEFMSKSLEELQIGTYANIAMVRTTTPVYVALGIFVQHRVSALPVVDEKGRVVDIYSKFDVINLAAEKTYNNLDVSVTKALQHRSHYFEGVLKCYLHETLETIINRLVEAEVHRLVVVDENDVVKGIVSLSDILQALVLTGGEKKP
T3 sequence (Q13131 whole entry): as the sequence (Q13131 whole entry) above
T3 sequence (O43741 whole entry partner): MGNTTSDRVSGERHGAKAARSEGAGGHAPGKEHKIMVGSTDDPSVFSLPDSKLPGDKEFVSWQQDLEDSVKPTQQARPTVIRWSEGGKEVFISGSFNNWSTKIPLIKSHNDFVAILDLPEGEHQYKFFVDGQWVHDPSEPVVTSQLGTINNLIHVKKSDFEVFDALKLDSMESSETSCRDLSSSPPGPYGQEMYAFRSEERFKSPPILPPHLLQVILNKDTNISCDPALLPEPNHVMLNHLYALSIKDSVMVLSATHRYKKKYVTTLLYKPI
T3 sequence (Q9UGJ0 whole entry partner): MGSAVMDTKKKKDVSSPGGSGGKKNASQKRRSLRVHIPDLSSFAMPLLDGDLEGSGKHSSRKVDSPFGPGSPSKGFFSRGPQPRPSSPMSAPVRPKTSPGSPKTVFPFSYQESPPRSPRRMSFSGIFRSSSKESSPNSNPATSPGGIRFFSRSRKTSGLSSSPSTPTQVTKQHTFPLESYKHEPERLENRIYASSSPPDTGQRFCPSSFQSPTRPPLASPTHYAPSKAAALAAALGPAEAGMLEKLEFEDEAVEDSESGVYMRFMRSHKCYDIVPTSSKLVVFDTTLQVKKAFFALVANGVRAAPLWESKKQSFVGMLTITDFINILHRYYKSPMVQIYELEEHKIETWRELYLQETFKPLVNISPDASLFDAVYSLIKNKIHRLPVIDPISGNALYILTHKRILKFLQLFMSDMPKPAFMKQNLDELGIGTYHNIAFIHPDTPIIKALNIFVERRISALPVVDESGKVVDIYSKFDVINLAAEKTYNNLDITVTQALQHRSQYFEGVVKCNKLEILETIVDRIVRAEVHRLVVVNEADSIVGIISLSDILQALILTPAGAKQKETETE
T5 sequence (P43250 whole entry): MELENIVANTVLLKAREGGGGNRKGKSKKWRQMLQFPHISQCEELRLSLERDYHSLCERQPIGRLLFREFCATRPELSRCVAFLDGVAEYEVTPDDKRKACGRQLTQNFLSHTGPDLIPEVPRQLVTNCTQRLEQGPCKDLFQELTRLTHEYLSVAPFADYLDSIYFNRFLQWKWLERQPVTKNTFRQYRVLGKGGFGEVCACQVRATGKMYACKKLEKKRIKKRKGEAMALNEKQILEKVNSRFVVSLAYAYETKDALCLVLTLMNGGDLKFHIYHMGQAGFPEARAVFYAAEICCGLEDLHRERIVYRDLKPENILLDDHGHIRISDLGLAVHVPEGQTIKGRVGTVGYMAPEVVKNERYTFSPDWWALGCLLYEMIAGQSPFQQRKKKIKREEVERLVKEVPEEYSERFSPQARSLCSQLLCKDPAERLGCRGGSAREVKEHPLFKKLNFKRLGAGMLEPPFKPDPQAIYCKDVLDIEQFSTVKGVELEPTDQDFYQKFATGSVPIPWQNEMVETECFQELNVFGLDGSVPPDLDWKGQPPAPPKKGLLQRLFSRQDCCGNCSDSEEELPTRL
T2 sequence (P11802 whole entry): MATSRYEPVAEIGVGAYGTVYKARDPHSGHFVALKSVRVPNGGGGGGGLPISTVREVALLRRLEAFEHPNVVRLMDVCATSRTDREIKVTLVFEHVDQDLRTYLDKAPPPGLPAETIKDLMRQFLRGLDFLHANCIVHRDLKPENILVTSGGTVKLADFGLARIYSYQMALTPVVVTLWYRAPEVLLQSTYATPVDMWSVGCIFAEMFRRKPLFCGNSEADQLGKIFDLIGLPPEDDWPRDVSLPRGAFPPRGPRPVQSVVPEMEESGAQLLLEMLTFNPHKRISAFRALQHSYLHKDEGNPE
T2 sequence (P24385 whole entry partner): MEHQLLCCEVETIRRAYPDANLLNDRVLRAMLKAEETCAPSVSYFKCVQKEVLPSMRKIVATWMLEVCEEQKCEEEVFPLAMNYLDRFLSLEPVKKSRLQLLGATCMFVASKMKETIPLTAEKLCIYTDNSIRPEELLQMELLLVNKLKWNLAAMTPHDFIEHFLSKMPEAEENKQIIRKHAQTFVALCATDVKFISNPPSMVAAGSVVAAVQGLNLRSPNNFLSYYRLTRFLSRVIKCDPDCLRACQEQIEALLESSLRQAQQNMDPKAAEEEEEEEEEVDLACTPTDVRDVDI
T7 sequence (Q15418 whole entry): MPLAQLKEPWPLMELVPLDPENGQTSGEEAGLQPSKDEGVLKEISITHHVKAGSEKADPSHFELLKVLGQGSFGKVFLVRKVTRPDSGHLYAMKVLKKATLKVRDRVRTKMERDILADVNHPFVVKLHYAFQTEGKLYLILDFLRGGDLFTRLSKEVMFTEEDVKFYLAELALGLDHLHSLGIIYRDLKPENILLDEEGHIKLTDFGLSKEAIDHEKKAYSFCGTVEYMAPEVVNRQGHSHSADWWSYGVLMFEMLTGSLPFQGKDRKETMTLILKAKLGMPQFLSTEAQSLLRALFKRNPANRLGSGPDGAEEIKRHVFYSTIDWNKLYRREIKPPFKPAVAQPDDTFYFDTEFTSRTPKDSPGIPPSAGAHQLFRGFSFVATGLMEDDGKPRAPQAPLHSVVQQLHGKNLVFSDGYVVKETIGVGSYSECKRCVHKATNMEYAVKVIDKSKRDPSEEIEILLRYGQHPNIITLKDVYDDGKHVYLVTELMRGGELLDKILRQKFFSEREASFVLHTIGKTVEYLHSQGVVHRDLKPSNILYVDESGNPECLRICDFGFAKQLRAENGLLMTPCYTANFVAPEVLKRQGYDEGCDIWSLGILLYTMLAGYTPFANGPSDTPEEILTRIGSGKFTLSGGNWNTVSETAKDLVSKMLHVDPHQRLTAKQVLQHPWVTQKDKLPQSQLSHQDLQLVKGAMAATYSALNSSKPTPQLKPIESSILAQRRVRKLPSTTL
T9 sequence (Q00534 whole entry): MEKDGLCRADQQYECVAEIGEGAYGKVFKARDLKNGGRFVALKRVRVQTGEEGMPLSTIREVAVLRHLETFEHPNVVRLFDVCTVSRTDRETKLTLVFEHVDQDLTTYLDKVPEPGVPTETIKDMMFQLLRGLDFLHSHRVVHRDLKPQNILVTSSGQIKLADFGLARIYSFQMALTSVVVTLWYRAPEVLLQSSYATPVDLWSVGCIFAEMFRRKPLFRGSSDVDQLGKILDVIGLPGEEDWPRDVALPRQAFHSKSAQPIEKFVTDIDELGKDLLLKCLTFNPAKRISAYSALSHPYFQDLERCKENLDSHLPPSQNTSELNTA
T9 sequence (P24385 whole entry partner): as the sequence (P24385 whole entry partner) above

Structure (SMILES) | inhibition at 1 µM (TXK) | inhibition at 10 µM (TXK) | inhibition at 1 µM (CDK4/cyclin D1) | inhibition at 10 µM (CDK4/cyclin D1) | inhibition at 1 µM (AMPK (A1/B2/G2)) | inhibition at 10 µM (AMPK (A1/B2/G2)) | inhibition at 1 µM (AMPK A1/B1/G1) | inhibition at 10 µM (AMPK A1/B1/G1) | inhibition at 1 µM (GRK6) | inhibition at 10 µM (GRK6) | inhibition at 1 µM (NEK9) | inhibition at 10 µM (NEK9) | inhibition at 1 µM (RPS6KA1 (RSK1)) | inhibition at 10 µM (RPS6KA1 (RSK1)) | inhibition at 1 µM (ABL1 Y253F) | inhibition at 10 µM (ABL1 Y253F) | inhibition at 1 µM (CDK6/cyclin D1) | inhibition at 10 µM (CDK6/cyclin D1)
COc1ccc2c(c1OC)c(=O)n1c3ccc(O)cc3c3ccnc2c31 [MW01, 5-Hydroxy-10,11-dimethoxy-9H-benzo[c]indolo[3,2,1-ij][1,5]naphthyridin-9-one] | 12% | 29% | -8% | -4% | -6% | 5% | 4% | 14% | 0% | 5% | 4% | 9% | 12% | 19% | 9% | 30% | 1% | -8%
COc1ccc2cc3c(N)nn(C(=O)c4cccc(N(C)C)c4)c3nc2c1 [MW05, (3-Amino-7-methoxypyrazolo[3,4-b]quinolin-1-yl)-[3-(dimethylamino)phenyl]methanone] | 4% | -13% | -3% | -1% | -10% | 4% | 6% | -3% | 6% | 3% | 6% | 5% | 10% | 3% | -2% | 7% | 2% | 0%
